# Measured values: patent publication US20250312344A1, “COMBINATION THERAPIES USING PRMT5 INHIBITORS AND IMMUNE CHECKPOINT INHIBITORS FOR THE TREATMENT OF CANCER” (MIRATI THERAPEUTICS, INC., priority 2024, published 2025)
# Test system: murine syngeneic cancer model with a homozygous deletion of the Mtap gene (Mtap^DEL)
# Assay: MRTX1719 + immune checkpoint blockade combination study, tumor growth in Mtap^DEL syngeneic model
# Assay type: in vivo, BALB/c mice
# Protocol: Immune-competent female BALB/c mice were implanted with murine syngeneic cancer model with a homozygous deletion of the Mtap gene (Mtap^DEL). Mouse health was monitored daily, and caliper measurements began when tumors were palpable. Tumor volume measurements were determined utilizing the formula 0.5×L×W2 in which L refers to length and W refers to width of each tumor. When tumors reached approximately 80 mm^3, animals were randomized to receive A) vehicle (0.5% methylcellulose (4000 cps)/0.2% Tween80 in water) and isotype control antibodies), B) immune checkpoint blockade antibodies targeting mouse-Ctla-4 and mouse-Pd-1 and vehicle, C) a PRMT5 inhibitor and isotype control antibodies, or D) the PRMT5 inhibitor and immune checkpoint blockade antibodies targeting mouse-Ctla-4 and mouse-Pd-1. Tumor volumes were measured two or three times per week (n=10/treatment group). Tumor Growth Inhibition (% TGI) was calculated using the formula: (1−(Final Drug Treated Tumor Volume−Initial Drug Treated Tumor Volume)/(Final Vehicle Treated Tumor Volume−Initial Vehicle Treated Tumor Volume))*100.
# This example was conducted according to the study procedure described above. The PRMT5 inhibitor was MRTX1719 administered at 100 mg/kg once a day (QD). MRTX1719 used is as described herein.
# The immune checkpoint antibody targeting mouse-Ctla-4 was dosed on Day 0 while the antibody targeting mouse-Pd-1 was dosed on Day 0, 3 and 6.
smiles,measurement,setting,value
Cn1ncc(-c2ccc3c(=O)[nH]nc(CN)c3c2)c1-c1c(F)c(Cl)cc(OC2CC2)c1C#N [MRTX1719],Tumor volume,"Study Day 1, MRTX1719 100 mg/kg QD, aCTLA-4 Day 0, aPD-1 Day 0, 3, 6",115 mm^3
same,Tumor volume,"Study Day 3, MRTX1719 100 mg/kg QD, aCTLA-4 Day 0, aPD-1 Day 0, 3, 6",118 mm^3
same,Tumor volume,"Study Day 6, MRTX1719 100 mg/kg QD, aCTLA-4 Day 0, aPD-1 Day 0, 3, 6",154 mm^3
same,Tumor volume,"Study Day 8, MRTX1719 100 mg/kg QD, aCTLA-4 Day 0, aPD-1 Day 0, 3, 6",182 mm^3
same,Tumor volume,"Study Day 10, MRTX1719 100 mg/kg QD, aCTLA-4 Day 0, aPD-1 Day 0, 3, 6",233 mm^3
same,Tumor volume,"Study Day 13, MRTX1719 100 mg/kg QD, aCTLA-4 Day 0, aPD-1 Day 0, 3, 6",352 mm^3
same,Tumor volume,"Study Day 15, MRTX1719 100 mg/kg QD, aCTLA-4 Day 0, aPD-1 Day 0, 3, 6",558 mm^3
same,Tumor volume,"Study Day 17, MRTX1719 100 mg/kg QD, aCTLA-4 Day 0, aPD-1 Day 0, 3, 6",858 mm^3
same,Tumor volume,"Study Day 20, MRTX1719 100 mg/kg QD, aCTLA-4 Day 0, aPD-1 Day 0, 3, 6",1010 mm^3
same,Tumor volume,"Study Day 22, MRTX1719 100 mg/kg QD, aCTLA-4 Day 0, aPD-1 Day 0, 3, 6",1171 mm^3
same,Tumor volume,"Study Day 24, MRTX1719 100 mg/kg QD, aCTLA-4 Day 0, aPD-1 Day 0, 3, 6",1312 mm^3
same,Tumor volume,"Study Day 27, MRTX1719 100 mg/kg QD, aCTLA-4 Day 0, aPD-1 Day 0, 3, 6",1644 mm^3
same,Tumor volume,"Study Day −1 (before dosing), n=10/group",82 mm^3
same,% TGI (Day 17),"Tumor Growth Inhibition vs vehicle, Day 17, MRTX1719 100 mg/kg QD, aCTLA-4 Day 0, aPD-1 Day 0, 3, 6",43.5%
